Results as given in ChEMBL document CHEMBL4359837, “Discovery of 2-(4-Chloro-3-(trifluoromethyl)phenyl)-N-(4-((6,7-dimethoxyquinolin-4-yl)oxy)phenyl)acetamide (CHMFL-KIT-64) as a Novel Orally Available Potent Inhibitor against Broad-Spectrum Mutants of c-KIT Kinase for Gastrointestinal Stromal Tumors” (J Med Chem, 2019).
Each block holds one compound with its values, some of them ahead of it. Activity calls are given as the source filed them. The rule behind the calls is not given here.

How the values were obtained:
[1] = tested on: Mus musculus; assay: Antitumor activity against mouse BAF3(transformed) cells harboring c-KIT T670I mutant implanted in BALB/c nu mouse assessed as tumor growth inhibition administered via oral gavage for 11 days; type: functional
[2] = tested on: Mus musculus; type: functional, organism-based; details: BALB/c, 80 mg/kg
[3] = tested on: Mast/stem cell growth factor receptor Kit (Homo sapiens), P10721 [L576P]; details: Mus musculus
[4] = target: Macrophage colony-stimulating factor 1 receptor (Mus musculus) (UniProt P09581); assay: Inhibition of CSF1R in mouse BAF3(transformed) cells assessed as growth inhibition after 72 hrs by CCK8 assay
[5] = target: T1, Mast/stem cell growth factor receptor Kit (Homo sapiens, UniProt P10721, 560-578DEL); type: cell-based, GISTT1
[6] = target: T2, Mast/stem cell growth factor receptor Kit (Homo sapiens, UniProt P10721, 560-578DEL/T670I); type: cell-based
[7] = tested on: Mast/stem cell growth factor receptor Kit (Homo sapiens), P10721 [UNDEFINED MUTATION]
Description: Inhibition of c-KIT 560 to 578 deletion/T670I mutant in human GIST5R cells assessed as growth inhibition after 72 hrs by CCK8 assay

[8] = Half life in mouse at 1 mg/kg, iv by LC-MS/MS analysis; type: ADME, organism-based; details: in vivo
[9] = Half life in mouse at 10 mg/kg, po by LC-MS/MS analysis; type: ADME, organism-based; details: in vivo
[10] = AUC (0 to t) in Beagle dog at 1 mg/kg, iv by LC-MS/MS analysis; type: ADME, organism-based, Canis lupus familiaris; details: in vivo
[11] = Half life in Beagle dog at 1 mg/kg, iv by LC-MS/MS analysis; type: ADME, organism-based, Canis lupus familiaris; details: in vivo
[12] = target: RAC-alpha serine/threonine-protein kinase (Homo sapiens) (UniProt P31749); type: cell-based; details: GISTT1
[13] = species: Homo sapiens; type: functional, cell-based
[14] = target: Platelet-derived growth factor receptor beta (Homo sapiens, UniProt P09619); assay: Inhibition of recombinant human His-tagged PDGFRB cytoplasmic domain (558 to 1106 residues) expressed in baculovirus expression system by Z-lyte assay
[15] = tested on: GISTT1; type: functional, cell-based; details: Homo sapiens
[16] = target: Proto-oncogene tyrosine-protein kinase receptor Ret (Mus musculus) (UniProt P35546); assay: Inhibition of RET in mouse BAF3(transformed) cells assessed as growth inhibition after 72 hrs by CCK8 assay
[17] = target: Epithelial discoidin domain-containing receptor 1 (Homo sapiens, UniProt Q08345); assay: Binding affinity to wild-type human partial length DDR1 (R565 to V876 residues) expressed in bacterial expression system assessed as residual binding level at 1 uM by Kinomescan method relative to control
[18] = tested on: Mus musculus; type: functional, organism-based; details: BALB/c, 80 mg/kg; remark: listed apart in the source
[19] = target: T2, Mast/stem cell growth factor receptor Kit; type: cell-based, GISTT1
[20] = target: T2, Mast/stem cell growth factor receptor Kit; type: cell-based; remark: listed apart in the source
[21] = target: T3, Proto-oncogene tyrosine-protein kinase receptor Ret (Homo sapiens, UniProt P07949); assay: Inhibition of recombinant human RET cytoplasmic domain (658 to 1114 residues) expressed in baculovirus expression system by Z-lyte assay
[22] = target: T1, Mast/stem cell growth factor receptor Kit; type: cell-based, GISTT1; remark: listed apart in the source
[23] = tested on: GISTT1; type: functional, cell-based; details: Homo sapiens; remark: listed apart in the source
[24] = AUC (0 to t) in Sprague-Dawley rat at 1 mg/kg, iv by LC-MS/MS analysis; type: ADME, organism-based; details: in vivo
[25] = tested on: Mast/stem cell growth factor receptor Kit (Homo sapiens), P10721 [N822K]; details: Mus musculus
Description: Inhibition of c-KIT N822K mutant in mouse BAF3(transformed) cells assessed as growth inhibition after 72 hrs by CCK8 assay

[26] = tested on: Mus musculus; type: functional, organism-based; details: BALB/c, 80 mg/kg, TDE = time-dependent effect
[27] = tested on: Mast/stem cell growth factor receptor Kit (Homo sapiens), P10721 [UNDEFINED MUTATION]; details: GISTT1
Description: Inhibition of c-KIT 560 to 578 deletion mutant in human GISTT1 cells assessed as growth inhibition after 72 hrs by CCK8 assay

[28] = tested on: GISTT1; type: functional, cell-based; details: Homo sapiens; remark: listed apart in the source
[29] = Cmax in Sprague-Dawley rat at 1 mg/kg, iv by LC-MS/MS analysis; type: ADME, organism-based; design: dose 1 mg/kg, route intravenous; details: in vivo
[30] = Half life in Sprague-Dawley rat at 10 mg/kg, po by LC-MS/MS analysis; type: ADME, organism-based; details: in vivo
[31] = target: RAC-alpha serine/threonine-protein kinase (Homo sapiens) (UniProt P31749); type: cell-based; details: GISTT1; remark: listed apart in the source
[32] = target: Platelet-derived growth factor receptor alpha (Homo sapiens, UniProt P16234); assay: Inhibition of recombinant human GST-tagged PDGFRA cytoplasmic domain (550 to 1089 residues) expressed in baculovirus expression system by Z-lyte assay
[33] = target: T2, Mast/stem cell growth factor receptor Kit; type: cell-based; remark: listed apart in the source
[34] = tested on: Mus musculus; type: functional, organism-based; details: BALB/c, 80 mg/kg; remark: listed apart in the source
[35] = target: T2, Mast/stem cell growth factor receptor Kit; type: cell-based, GISTT1; remark: listed apart in the source
[36] = target: T2, Mast/stem cell growth factor receptor Kit; type: cell-based, GISTT1; remark: listed apart in the source
[37] = tested on: Mast/stem cell growth factor receptor Kit (Homo sapiens), P10721 [V559A]; details: Mus musculus
Description: Inhibition of c-KIT V559A mutant in mouse BAF3(transformed) cells assessed as growth inhibition after 72 hrs by CCK8 assay

[38] = Cmax in Sprague-Dawley rat at 10 mg/kg, po by LC-MS/MS analysis; type: ADME, organism-based; design: dose 10 mg/kg, route oral; details: in vivo
[39] = target: Mast/stem cell growth factor receptor Kit (Homo sapiens, UniProt P10721, T670I/V559D); assay: Inhibition of human N-terminal GST-tagged KIT V559D/T670I double mutant (544 to end residues) expressed in baculovirus infected Sf9 insect cells by Lanthascreen Eu-binding method
[40] = target: T3, Proto-oncogene tyrosine-protein kinase receptor Ret; assay: Binding affinity to wild-type human partial length RET (E713 to D1014 residues) expressed in bacterial expression system assessed as residual binding level at 1 uM by Kinomescan method relative to control
[41] = AUC (0 to t) in Beagle dog at 5 mg/kg, po by LC-MS/MS analysis; type: ADME, organism-based, Canis lupus familiaris; details: in vivo
[42] = tested on: Mast/stem cell growth factor receptor Kit (Homo sapiens), P10721 [UNDEFINED MUTATION]; details: GISTT1, 0.1 uM
Description: Inhibition of c-KIT 560 to 578 deletion mutant in human GISTT1 cells assessed as reduction in pS6 phosphorylation at S236 residue at 0.1 uM measured after 2 hrs by Western blot analysis

[43] = target: RAC-alpha serine/threonine-protein kinase (Homo sapiens) (UniProt P31749); details: GISTT1, 0.1 uM
Description: Inhibition of AKT autophosphorylation at T308 residue in human GISTT1 cells harboring c-KIT 560 to 578 deletion mutant at 0.1 uM measured after 2 hrs by Western blot analysis

[44] = tested on: Mast/stem cell growth factor receptor Kit (Homo sapiens), P10721 [UNDEFINED MUTATION]; details: GISTT1, 0.1 uM; remark: listed apart in the source
Description: Inhibition of c-KIT 560 to 578 deletion mutant in human GISTT1 cells assessed as reduction in pS6 phosphorylation at S235 residue at 0.1 uM measured after 2 hrs by Western blot analysis

[45] = tested on: Mast/stem cell growth factor receptor Kit (Homo sapiens), P10721 [UNDEFINED MUTATION]; details: 0.1 uM
Description: Inhibition of c-KIT 560 to 578 deletion/T670I mutant in human GIST5R assessed as reduction in pS6 phosphorylation at S235 residue at 0.1 uM measured after 2 hrs by Western blot analysis

[46] = tested on: Mast/stem cell growth factor receptor Kit (Homo sapiens), P10721 [UNDEFINED MUTATION]; details: GISTT1, 0.1 uM; remark: listed apart in the source
Description: Inhibition of c-KIT 560 to 578 deletion mutant in human GISTT1 cells assessed as reduction in STAT3 phosphorylation at Y705 residue at 0.1 uM measured after 2 hrs by Western blot analysis

[47] = tested on: Mast/stem cell growth factor receptor Kit (Homo sapiens), P10721 [UNDEFINED MUTATION]; details: GISTT1, 0.1 uM; remark: listed apart in the source
Description: Inhibition of c-KIT 560 to 578 deletion mutant in human GISTT1 cells assessed as reduction in AKT phosphorylation at S473 residue at 0.1 uM measured after 2 hrs by Western blot analysis

[48] = target: RAC-alpha serine/threonine-protein kinase (Homo sapiens) (UniProt P31749); details: GISTT1, 0.1 uM; remark: listed apart in the source
Description: Inhibition of AKT autophosphorylation at T308 residue in human GISTT1 cells harboring c-KIT 560 to 578 deletion/T670I mutant at 0.1 uM measured after 2 hrs by Western blot analysis

[49] = tested on: Mast/stem cell growth factor receptor Kit (Homo sapiens), P10721 [UNDEFINED MUTATION]; details: 0.1 uM; remark: listed apart in the source
Description: Inhibition of c-KIT 560 to 578 deletion/T670I mutant in human GIST5R assessed as reduction in ERK phosphorylation at T202 residue at 0.1 uM measured after 2 hrs by Western blot analysis

[50] = tested on: Mast/stem cell growth factor receptor Kit (Homo sapiens), P10721 [UNDEFINED MUTATION]; details: 0.1 uM; remark: listed apart in the source
Description: Inhibition of c-KIT 560 to 578 deletion/T670I mutant in human GIST5R assessed as reduction in AKT phosphorylation at S473 residue at 0.1 uM measured after 2 hrs by Western blot analysis

[51] = tested on: Mast/stem cell growth factor receptor Kit (Homo sapiens), P10721 [UNDEFINED MUTATION]; details: 0.1 uM; remark: listed apart in the source
Description: Inhibition of c-KIT 560 to 578 deletion/T670I mutant in human GIST5R cells assessed as reduction in c-KIT autophosphorylation at Y703 residue at 0.1 uM measured after 2 hrs by Western blot analysis

Mast/stem cell growth factor receptor Kit (Homo sapiens), P10721 [UNDEFINED MUTATION], sequence (P10721 whole entry, looked up, change not shown): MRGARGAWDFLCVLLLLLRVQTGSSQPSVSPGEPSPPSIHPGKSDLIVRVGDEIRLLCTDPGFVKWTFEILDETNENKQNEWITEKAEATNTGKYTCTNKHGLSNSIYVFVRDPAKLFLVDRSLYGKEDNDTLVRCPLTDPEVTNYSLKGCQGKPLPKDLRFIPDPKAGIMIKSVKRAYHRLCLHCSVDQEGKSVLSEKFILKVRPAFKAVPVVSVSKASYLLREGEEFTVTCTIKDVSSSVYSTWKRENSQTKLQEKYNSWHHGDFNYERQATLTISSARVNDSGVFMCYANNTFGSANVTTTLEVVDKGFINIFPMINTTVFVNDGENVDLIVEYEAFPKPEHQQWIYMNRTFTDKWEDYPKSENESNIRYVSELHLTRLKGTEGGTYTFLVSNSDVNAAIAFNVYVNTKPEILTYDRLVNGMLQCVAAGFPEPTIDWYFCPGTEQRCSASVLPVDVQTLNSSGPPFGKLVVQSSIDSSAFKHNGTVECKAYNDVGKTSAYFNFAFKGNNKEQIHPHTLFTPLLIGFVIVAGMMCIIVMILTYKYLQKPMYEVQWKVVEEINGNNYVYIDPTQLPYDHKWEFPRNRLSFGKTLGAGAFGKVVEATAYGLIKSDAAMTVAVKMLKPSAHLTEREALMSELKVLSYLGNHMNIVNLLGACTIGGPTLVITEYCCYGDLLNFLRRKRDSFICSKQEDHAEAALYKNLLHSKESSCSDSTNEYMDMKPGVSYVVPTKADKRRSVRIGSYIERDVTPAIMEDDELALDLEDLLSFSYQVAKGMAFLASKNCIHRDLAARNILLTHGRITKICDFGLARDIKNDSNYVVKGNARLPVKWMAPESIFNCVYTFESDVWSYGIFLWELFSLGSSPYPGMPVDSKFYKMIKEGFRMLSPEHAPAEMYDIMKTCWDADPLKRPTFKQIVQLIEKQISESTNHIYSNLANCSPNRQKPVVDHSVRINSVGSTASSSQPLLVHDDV
T2 sequence (P10721 whole entry, looked up, stated change not applied): as the sequence (P10721 whole entry, looked up, change not shown) above
RAC-alpha serine/threonine-protein kinase (Homo sapiens), sequence (P31749 whole entry, the tested form may be a part): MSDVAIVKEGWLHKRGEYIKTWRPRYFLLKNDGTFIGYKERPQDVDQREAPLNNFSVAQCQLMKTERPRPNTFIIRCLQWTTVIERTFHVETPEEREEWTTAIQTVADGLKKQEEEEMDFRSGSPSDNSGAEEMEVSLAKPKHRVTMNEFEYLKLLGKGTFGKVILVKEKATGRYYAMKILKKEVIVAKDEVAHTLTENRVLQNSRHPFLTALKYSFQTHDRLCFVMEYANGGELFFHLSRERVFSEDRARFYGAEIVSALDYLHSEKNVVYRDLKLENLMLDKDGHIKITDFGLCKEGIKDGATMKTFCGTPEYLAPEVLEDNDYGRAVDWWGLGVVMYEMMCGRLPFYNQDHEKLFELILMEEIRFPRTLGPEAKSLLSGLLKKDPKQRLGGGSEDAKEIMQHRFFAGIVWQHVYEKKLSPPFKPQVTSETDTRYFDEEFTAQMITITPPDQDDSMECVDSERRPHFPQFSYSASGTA
T1 sequence (P10721 whole entry, looked up, stated change not applied): as the sequence (P10721 whole entry, looked up, change not shown) above
T3 sequence (P07949 whole entry, the tested form may be a part): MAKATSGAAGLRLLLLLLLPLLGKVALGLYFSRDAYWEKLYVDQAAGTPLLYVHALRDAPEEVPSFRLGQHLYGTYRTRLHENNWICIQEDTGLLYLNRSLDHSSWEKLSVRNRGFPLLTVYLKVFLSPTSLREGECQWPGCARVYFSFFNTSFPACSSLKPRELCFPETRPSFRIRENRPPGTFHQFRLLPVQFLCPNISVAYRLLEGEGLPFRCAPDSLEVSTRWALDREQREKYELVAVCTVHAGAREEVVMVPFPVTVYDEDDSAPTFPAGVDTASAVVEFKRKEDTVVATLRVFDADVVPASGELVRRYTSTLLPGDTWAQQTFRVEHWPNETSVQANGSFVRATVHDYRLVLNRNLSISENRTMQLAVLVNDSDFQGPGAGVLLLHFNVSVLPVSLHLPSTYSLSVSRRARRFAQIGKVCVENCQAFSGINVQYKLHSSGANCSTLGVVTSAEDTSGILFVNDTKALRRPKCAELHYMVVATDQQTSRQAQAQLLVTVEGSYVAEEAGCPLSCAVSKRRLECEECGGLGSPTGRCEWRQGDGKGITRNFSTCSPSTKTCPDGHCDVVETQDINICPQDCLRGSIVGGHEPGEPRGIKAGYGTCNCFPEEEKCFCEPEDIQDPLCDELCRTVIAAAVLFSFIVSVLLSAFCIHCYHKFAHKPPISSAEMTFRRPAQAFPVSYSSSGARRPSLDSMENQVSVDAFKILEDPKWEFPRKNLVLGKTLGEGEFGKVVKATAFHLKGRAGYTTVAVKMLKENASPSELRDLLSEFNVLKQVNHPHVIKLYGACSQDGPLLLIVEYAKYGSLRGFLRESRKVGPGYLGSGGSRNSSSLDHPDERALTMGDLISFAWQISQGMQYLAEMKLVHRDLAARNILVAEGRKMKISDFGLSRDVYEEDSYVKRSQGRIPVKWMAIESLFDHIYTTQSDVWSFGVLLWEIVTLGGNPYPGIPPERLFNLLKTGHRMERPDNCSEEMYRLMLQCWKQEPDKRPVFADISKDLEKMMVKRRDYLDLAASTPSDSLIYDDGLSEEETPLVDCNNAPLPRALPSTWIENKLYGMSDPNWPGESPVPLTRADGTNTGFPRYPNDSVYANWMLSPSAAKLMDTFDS

SMILES: COc1cc2nccc(Oc3ccc(NC(=O)Cc4ccc(Cl)c(C(F)(F)F)c4)cc3)c2cc1OC
TGI [1]: Dose-dependent effect
inhibition [2]: inactive
GI50 [3]: 0.001 µM
GI50 [4]: 0.003 µM
EC50 [5]: < 0.1 µM
EC50 [6]: < 0.1 µM
GI50 [7]: 0.073 µM
half-life [8]: 5.4 h
half-life [9]: 4.5 h
AUC(0-t) [10]: 5320 ng·h/mL
half-life [11]: 20.6 h
inhibition [12]: inactive
Activity [13]: Dose-dependent effect
IC50 [14]: 0.097 µM
Activity [15]: Dose-dependent effect
GI50 [16]: 0.28 µM
Activity [17]: < 1%
inhibition [18]: inactive
EC50 [19]: < 0.1 µM
EC50 [20]: < 0.1 µM
IC50 [21]: 0.034 µM
EC50 [22]: < 0.1 µM
Activity [23]: Dose-dependent effect
AUC(0-t) [24]: 2550 ng·h/mL
GI50 [25]: 0.026 µM
inhibition [26]: Tde
GI50 [27]: 0.006 µM
TGI [28]: Dose-dependent effect
Cmax [29]: 660 ng/mL
half-life [30]: 6.41 h
inhibition [31]: Active
IC50 [32]: 0.025 µM
EC50 [33]: < 0.1 µM
inhibition [34]: inactive
EC50 [35]: < 0.1 µM
EC50 [36]: < 0.1 µM
GI50 [37]: 0.021 µM
Cmax [38]: 1640 ng/mL
IC50 [39]: 0.008 µM
Activity [40]: < 1%
AUC(0-t) [41]: 19100 ng·h/mL

inhibition [42]: Active
inhibition [43]: Active
inhibition [44]: Active
inhibition [45]: Active
inhibition [46]: Active
inhibition [47]: Active
inhibition [48]: inactive
inhibition [49]: Active
inhibition [50]: Active
inhibition [51]: Active
SMILES: CCN(CC)CCNC(=O)c1c(C)[nH]c(/C=C2\C(=O)Nc3ccc(F)cc32)c1C [SUNITINIB]
